Molecules are shown by their SMILES.

In this experiment the target is T1, CDK12 protein level in CAL-120 breast cancer cells (Homo sapiens, UniProt Q9NYV4).
T1 construct: endogenous in cells; host or cells: CAL-120 human breast cancer cells (DSMZ ACC 459)
T1 sequence (Q9NYV4 whole entry): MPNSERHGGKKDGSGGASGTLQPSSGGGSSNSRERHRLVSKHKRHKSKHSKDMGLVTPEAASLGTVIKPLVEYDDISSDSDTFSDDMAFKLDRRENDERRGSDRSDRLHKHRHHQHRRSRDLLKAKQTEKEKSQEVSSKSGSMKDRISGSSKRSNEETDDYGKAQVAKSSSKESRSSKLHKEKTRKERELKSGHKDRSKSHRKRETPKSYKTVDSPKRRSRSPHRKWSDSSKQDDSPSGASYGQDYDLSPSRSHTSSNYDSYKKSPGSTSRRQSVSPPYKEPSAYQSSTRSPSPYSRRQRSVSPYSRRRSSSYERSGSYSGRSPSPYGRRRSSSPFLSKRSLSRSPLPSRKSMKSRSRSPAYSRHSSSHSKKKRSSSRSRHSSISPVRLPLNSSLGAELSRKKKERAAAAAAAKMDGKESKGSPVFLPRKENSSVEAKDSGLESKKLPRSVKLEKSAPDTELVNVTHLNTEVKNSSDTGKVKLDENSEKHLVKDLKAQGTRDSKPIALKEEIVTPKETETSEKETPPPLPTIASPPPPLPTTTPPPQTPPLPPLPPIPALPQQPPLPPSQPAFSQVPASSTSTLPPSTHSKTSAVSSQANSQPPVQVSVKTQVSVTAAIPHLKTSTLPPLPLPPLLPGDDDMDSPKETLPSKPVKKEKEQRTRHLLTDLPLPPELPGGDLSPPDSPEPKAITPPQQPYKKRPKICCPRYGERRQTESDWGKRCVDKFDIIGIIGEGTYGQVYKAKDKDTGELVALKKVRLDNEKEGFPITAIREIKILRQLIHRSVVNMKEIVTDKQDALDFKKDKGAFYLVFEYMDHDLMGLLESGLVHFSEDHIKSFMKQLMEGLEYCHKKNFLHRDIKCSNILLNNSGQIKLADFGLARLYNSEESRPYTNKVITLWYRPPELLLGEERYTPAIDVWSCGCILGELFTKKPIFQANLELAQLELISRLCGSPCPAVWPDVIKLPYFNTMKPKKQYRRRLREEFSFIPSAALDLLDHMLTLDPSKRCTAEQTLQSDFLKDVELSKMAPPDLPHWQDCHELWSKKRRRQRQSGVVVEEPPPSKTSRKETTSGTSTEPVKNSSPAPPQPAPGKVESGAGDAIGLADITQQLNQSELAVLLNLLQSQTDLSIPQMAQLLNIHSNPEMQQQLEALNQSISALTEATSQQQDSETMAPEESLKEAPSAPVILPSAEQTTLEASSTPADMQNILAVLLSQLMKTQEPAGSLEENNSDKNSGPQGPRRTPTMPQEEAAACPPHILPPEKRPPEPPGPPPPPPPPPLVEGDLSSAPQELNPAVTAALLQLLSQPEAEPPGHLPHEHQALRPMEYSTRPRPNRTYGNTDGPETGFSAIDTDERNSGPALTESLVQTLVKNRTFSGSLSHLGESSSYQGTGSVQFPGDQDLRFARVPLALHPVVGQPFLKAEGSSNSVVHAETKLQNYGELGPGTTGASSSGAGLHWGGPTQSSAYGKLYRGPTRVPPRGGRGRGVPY
T1 sequence (O75909 whole entry partner): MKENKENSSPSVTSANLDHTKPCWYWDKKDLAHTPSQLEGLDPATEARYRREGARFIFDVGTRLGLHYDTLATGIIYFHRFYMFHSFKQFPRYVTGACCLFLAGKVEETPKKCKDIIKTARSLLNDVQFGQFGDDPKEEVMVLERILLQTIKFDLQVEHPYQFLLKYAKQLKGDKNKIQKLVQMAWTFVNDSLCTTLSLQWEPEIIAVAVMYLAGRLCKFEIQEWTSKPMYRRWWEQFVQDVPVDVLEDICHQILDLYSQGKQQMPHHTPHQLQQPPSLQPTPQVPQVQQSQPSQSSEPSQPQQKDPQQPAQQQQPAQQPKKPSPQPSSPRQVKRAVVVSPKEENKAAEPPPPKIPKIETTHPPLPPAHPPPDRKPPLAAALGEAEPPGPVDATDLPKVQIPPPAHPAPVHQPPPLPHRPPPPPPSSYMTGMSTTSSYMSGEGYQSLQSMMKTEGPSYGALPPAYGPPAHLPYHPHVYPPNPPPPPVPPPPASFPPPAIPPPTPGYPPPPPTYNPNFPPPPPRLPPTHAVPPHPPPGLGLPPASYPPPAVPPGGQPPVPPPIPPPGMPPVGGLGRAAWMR
The experiment is described as follows: CDK12 protein level: Protein Simple (CDK12, CAL-120). It is filed as cell-based. The note with it: CAL-120 cells, 18 h with compound, CDK12/HSP90 peak area ratio vs vehicle, median, read-out: CDK12 protein level in CAL-120 breast ca cells, DC50-[mol/l] (median). An outline of the steps:
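Cells grown 24 h, then treated with compounds for 18 h at 37° C against DMSO controls. Lysates (0.4 microgramms protein) run on Protein Simple 66-440 kDa size assay with CDK12 and HSP90 loading-control antibodies. CDK12/HSP90 peak-area ratios versus vehicle gave DC50 (50% reduction) by 4-parameter fit.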
Turning to `Brc1cnn2c(NCc3nc4ccccc4[nH]3)nc(N3CC4(COC4)C3)nc12` [Example 48, N-[(1H-benzimidazol-2-yl)methyl]-8-bromo-2-(2-oxa-6-azaspiro[3.3]heptan-6-yl)pyrazolo[1,5-a][1,3,5]triazin-4-amine], the DC50 was under 30 nM. Turning to `Brc1cnn2c(NCc3nnc(-c4ccccn4)[nH]3)nc(N3CCOCC3)nc12` [Example 54, 8-bromo-2-(morpholin-4-yl)-N-{[5-(pyridin-2-yl)-4H-1,2,4-triazol-3-yl]methyl}pyrazolo[1,5-a][1,3,5]triazin-4-amine], the DC50 was under 30 nM.

As to `Brc1cnn2c(NCc3nc4ccccc4[nH]3)nc(N3CCCCC3)nc12` [Example 46, N-[(1H-benzimidazol-2-yl)methyl]-8-bromo-2-(piperidin-1-yl)pyrazolo[1,5-a][1,3,5]triazin-4-amine], the DC50 was under 30 nM. Turning to `Brc1cnn2c(NCc3nc4ccccc4[nH]3)nc(N3CCCC3)nc12` [Example 47, N-[(1H-benzimidazol-2-yl)methyl]-8-bromo-2-(pyrrolidin-1-yl)pyrazolo[1,5-a][1,3,5]triazin-4-amine], the DC50 turned out to be 58.9 nM. With `COc1cccc(-c2nnc(CNc3nc(N4CCOCC4)nc4c(Br)cnn34)[nH]2)c1` [Example 50, 8-bromo-N-{[5-(3-methoxyphenyl)-4H-1,2,4-triazol-3-yl]methyl}-2-(morpholin-4-yl)pyrazolo[1,5-a][1,3,5]triazin-4-amine], the DC50 amounted to 39.6 nM.

The record behind these values is patent US20230117034A1, “PYRAZOLOTRIAZINES” (Bayer Aktiengesellschaft, priority 2019, published 2023).
